Earlier results, collected in publication PMC2574912 (Life sciences, 2008).

Tests used:
[1] = test system: non-AT1, non-AT2 binding site in rat brain; conditions: sulfhydryl reducing agents, ref Karamyan and Speth, 2007
[2] = test system: AT-1 angiotensin receptor; conditions: presence of PCMB; ref Karamyan and Speth, 2007
AT2 receptor = conditions: PCMB; ref Karamyan, Speth unpublished observations

| SMILES | Effect on binding of 125I-Ang II to the non-AT1, non-AT2 binding site [1] | Effect on AT1 receptor binding [2] | Effect on AT2 receptor binding (AT2 receptor) |
| --- | --- | --- | --- |
| OCCS [β-mercaptoethanol] | inhibit the binding | – | – |
| O[C@@H](CS)[C@@H](O)CS (racemic) [dithiothreitol] | inhibit the binding | – | – |
| O=C(O)c1cc[c]([Hg][Cl])cc1 [PCMB, parachloromercuribenzoate] | – | inactivated | not inhibited |
